Assay results from patent US9975903B2, “Condensed heterocyclic compound” (Takeda Pharmaceutical Company Limited, priority 2014, dated 2018).
Structures can show the parent of a compound that is named as a salt.

Biological target: T1, Human recombinant enteropeptidase (Homo sapiens, UniProt P98073)
T1 construct: purchased ITSI-Biosciences LLC #REN-260
Experiment: Human enteropeptidase inhibitory activity (Test Example 1)
Type: biochemical
Details: 3.3 μM test compound; inhibition rate from fluorescence intensity at 2 hours after the start of the reaction; read-out: 3.3 μM Inhibition
Description: Human recombinant enteropeptidase (#REN-260, ITSI-Biosciences LLC) was diluted with an assay buffer (50 mM Tricine, pH 8.0, 0.01 (w/v) %, Tween 20, 10 mM CaCl2) to prepare a 24 mU/mL enzyme solution. Subsequently, 5FAM-Abu-Gly-Asp-Asp-Asp-Lys-Ile-Val-Gly-Gly-Lys(CPQ2)-Lys-Lys-NH2 (SEQ ID NO: 1, purity: 97.2%, CPC Scientific Inc.) was diluted with the assay buffer to prepare a 2.1 μM substrate solution. A test compound is dissolved in DMSO into a 1 mM solution, and the solution was diluted by 100-fold with the assay buffer to give a compound solution. To a 384-well black plate (#784076, Greiner Bio-One), 5 μL of the compound solution and 5 μL of the substrate solution were added and mixed, and 5 μL of the enzyme solution was then added to the mixture, followed by mixing to start the reaction. The fluorescence intensity was measured with a fluorescence plate reader EnVision (The Perkin-Elmer Corp.) at an excitation wavelength of 485 nm and a fluorescence wavelength of 535 nm. The same reaction as above except that the test compound was not contained was performed (test compound non-addition group). Furthermore, the same reaction as above except that the test compound and the enzyme were not contained was performed (control group). The inhibition rate was calculated using the fluorescence intensity at 2 hours after the start of the reaction by the following expression: Inhibition rate (%)=(1−((fluorescence intensity of test compound addition group)−(fluorescence intensity of control group))/((fluorescence intensity of test compound non-addition group)−(fluorescence intensity of control group)))×100

T1 sequence (P98073 whole entry): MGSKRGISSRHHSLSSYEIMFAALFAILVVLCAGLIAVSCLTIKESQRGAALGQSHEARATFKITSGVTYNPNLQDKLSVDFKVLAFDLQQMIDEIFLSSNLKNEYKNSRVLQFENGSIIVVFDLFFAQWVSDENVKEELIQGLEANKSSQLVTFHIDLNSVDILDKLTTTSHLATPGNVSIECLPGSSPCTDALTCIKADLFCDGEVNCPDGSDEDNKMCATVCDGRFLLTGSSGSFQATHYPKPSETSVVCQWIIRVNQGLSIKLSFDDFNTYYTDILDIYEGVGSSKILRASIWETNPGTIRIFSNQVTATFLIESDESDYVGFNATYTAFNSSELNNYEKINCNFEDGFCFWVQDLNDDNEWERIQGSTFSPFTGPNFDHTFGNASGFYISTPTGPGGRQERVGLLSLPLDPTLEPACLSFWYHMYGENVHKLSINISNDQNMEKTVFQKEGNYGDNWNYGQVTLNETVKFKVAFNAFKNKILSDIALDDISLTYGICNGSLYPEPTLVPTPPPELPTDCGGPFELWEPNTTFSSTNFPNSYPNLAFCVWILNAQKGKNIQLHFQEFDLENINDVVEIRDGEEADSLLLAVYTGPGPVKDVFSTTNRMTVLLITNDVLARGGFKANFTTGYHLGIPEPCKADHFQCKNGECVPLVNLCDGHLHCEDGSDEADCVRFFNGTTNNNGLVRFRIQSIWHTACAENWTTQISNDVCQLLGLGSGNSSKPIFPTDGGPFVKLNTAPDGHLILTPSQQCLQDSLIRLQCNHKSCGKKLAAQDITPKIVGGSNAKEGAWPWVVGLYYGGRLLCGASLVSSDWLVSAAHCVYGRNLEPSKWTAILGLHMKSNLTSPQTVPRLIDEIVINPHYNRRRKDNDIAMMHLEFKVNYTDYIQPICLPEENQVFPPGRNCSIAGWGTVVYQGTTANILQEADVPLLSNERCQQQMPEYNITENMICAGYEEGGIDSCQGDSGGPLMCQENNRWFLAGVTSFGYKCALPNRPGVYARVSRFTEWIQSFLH

Row | inhibition at 3.3 µM | Compound
1 | 100% | COCCN(C(=O)c1cccc2c1OCCCc1cc(NC(=N)N)ccc1C(=O)O2)[C@@H](CC(=O)O)C(=O)O [Example 109, N-((10-carbamimidamido-13-oxo-6,7,8,13-tetrahydro-dibenzo[b,f] [1,4]dioxecin-4-yl)carbonyl)-N-(2-methoxyethyl)-L-aspartic acid]
2 | 101% | N=C(N)Nc1ccc2c(c1)CCCOc1c(cccc1C(=O)N[C@@H](CCC(=O)O)C(=O)O)OC2=O [Example 18, N-((10-Carbamimidamido-13-oxo-6,7,8,13-tetrahydrodibenzo[b,f][1,4]dioxecin-4-yl)carbonyl)-L-glutamic acid]
3 | 101% | CN(CC(=O)N[C@@H](CC(=O)O)C(=O)O)C(=O)c1cccc2c1OCCCc1cc(NC(=N)N)ccc1C(=O)O2 [Example 103, N-((10-carbamimidamido-13-oxo-6,7,8,13-tetrahydro-dibenzo[b,f] [1,4]dioxecin-4-yl)carbonyl)-N-methylglycyl-L-aspartic acid]
4 | 100% | N=C(N)Nc1ccc2c(c1)CCCOc1c(cccc1C(=O)N(CC(=O)O)[C@@H](Cc1ccccc1)C(=O)O)OC2=O [Example 133, N-((10-carbamimidamido-13-oxo-6,7,8,13-tetrahydro-dibenzo[b,f] [1,4]dioxecin-4-yl)carbonyl)-N-(carboxymethyl)-L-phenylalanine]
5 | 101% | N=C(N)Nc1ccc2c(c1)CCOc1c(cccc1C(=O)N[C@@H](CC(=O)O)C(=O)O)OC2=O [Example 13, N-((9-Carbamimidamido-6-oxo-11,12-dihydro-6H-dibenzo[b,f][1,4]dioxonin-1-yl)carbonyl)-L-aspartic acid trifluoroacetate]
6 | 101% | N=C(N)Nc1ccc2c(c1)CCCOc1c(cccc1C(=O)N[C@@H](CC(=O)O)C(=O)O)OC2=O [Example 1, N-((10-Carbamimidamido-13-oxo-6,7,8,13-tetrahydrodibenzo[b,f][1,4]dioxecin-4-yl)carbonyl)-L-aspartic acid]
7 | 101% | N=C(N)Nc1ccc2c(c1)CCCOc1c(cccc1C(=O)N(Cc1ccccc1)[C@@H](CC(=O)O)C(=O)O)OC2=O [Example 107, N-benzyl-N-((10-carbamimidamido-13-oxo-6,7,8,13-tetrahydro-dibenzo[b,f] [1,4]dioxecin-4-yl)carbonyl)-L-aspartic acid]
8 | 100% | N=C(N)Nc1ccc2c(c1)CCCOc1c(cccc1C(=O)N(CC(=O)O)[C@@H](CC(=O)O)C(=O)O)OC2=O [Example 104, N-((10-Carbamimidamido-13-oxo-6,7,8,13-tetrahydrodibenzo[b,f][1,4]dioxecin-4-yl)carbonyl)-N-(carboxymethyl)-L-aspartic acid]

Continued, molecule first:

Row | Compound | inhibition at 3.3 µM
9 | N=C(N)Nc1ccc2c(c1)CCCOc1c(cccc1C(=O)N(CC(=O)O)Cc1ccc(CC(=O)O)cc1)OC2=O [Example 142, N-((10-carbamimidamido-13-oxo-6,7,8,13-tetrahydro-dibenzo[b,f] [1,4]dioxecin-4-yl)carbonyl)-N-(4-(carboxymethyl)benzyl)glycine] | 98%
10 | N=C(N)Nc1ccc2c(c1)CCCOc1c(ccc(CCC(=O)NC(CC(=O)O)CC(=O)O)c1C(=O)N[C@@H](Cc1ccc(O)cc1)C(=O)O)OC2=O [Example 123, 3-((3-(10-carbamimidamido-4-(((1S)-1-carboxy-2-(4-hydroxyphenyl)ethyl)carbamoyl)-13-oxo-6,7,8,13-tetrahydro-dibenzo[b,f] [1,4]dioxecin-3-yl)propanoyl)amino) pentanedioic acid] | 101%
11 | N=C(N)Nc1ccc2c(c1)CCCOc1c(cccc1C(=O)N[C@@H](CCC(N)=O)C(=O)O)OC2=O [Example 16, N^~2^~-((10-carbamimidamido-13-oxo-6,7,8,13-tetrahydro-dibenzo[b,f] [1,4]dioxecin-4-yl)carbonyl)-L-glutamine] | 101%
12 | N=C(N)Nc1ccc2c(c1)CCCOc1c(cccc1C1=NO[C@@](CC(=O)O)(C(=O)O)C1)OC2=O (stereo in doubt) [Example 22, 3-(10-Carbamimidamido-13-oxo-6,7,8,13-tetrahydrodibenzo[b,f][1,4]dioxecin-4-yl)-5-(carboxymethyl)-4,5-dihydro-1,2-oxazole-5-carboxylic acid] | 101%
13 | N=C(N)Nc1ccc2c(c1)CCCOc1c(ccc(CCC(=O)O)c1C(=O)O)OC2=O [Example 111, 10-carbamimidamido-3-(2-carboxyethyl)-13-oxo-6,7,8,13-tetrahydro-dibenzo[b,f] [1,4]dioxecine-4-carboxylic acid] | 100%
14 | COc1ccc(C[C@H](NC(=O)c2c(CCC(=O)NC(CC(=O)O)CC(=O)O)ccc3c2OCCCc2cc(NC(=N)N)ccc2C(=O)O3)C(=O)O)cc1 [Example 132, 3-((3-(10-carbamimidamido-4-(((1S)-1-carboxy-2-(4-methoxyphenyl)ethyl)carbamoyl)-13-oxo-6,7,8,13-tetrahydro-dibenzo[b,f] [1,4]dioxecin-3-yl)propanoyl)amino) pentanedioic acid] | 100%
15 | N=C(N)Nc1ccc2c(c1)CCCOc1c(cc(Cl)cc1C(=O)N[C@@H](CC(=O)O)C(=O)O)OC2=O [Example 66, N-((10-carbamimidamido-2-chloro-13-oxo-6,7,8,13-tetrahydro-dibenzo[b,f] [1,4]dioxecin-4-yl)carbonyl)-L-aspartic acid] | 101%
16 | N=C(N)Nc1ccc2c(c1)OCCOc1c(CCC(=O)N[C@@H](CC(=O)O)C(=O)O)cccc1OC2=O [Example 52, N-(3-(3-Carbamimidamido-14-oxo-6,7-dihydro-14H-dibenzo[b,h][1,4,7]trioxecin-9-yl)propanoyl)aspartic acid trifluoroacetate] | 101%
17 | C[C@@H]1CCc2cc(NC(=N)N)ccc2C(=O)Oc2cccc(C(=O)N[C@@H](CC(=O)O)C(=O)O)c2C1 [Example 20, N-((3-carbamimidamido-7-methyl-14-oxo-6,7,8,14-tetrahydro-6H-dibenzo[b,h]oxecin-9-yl)carbonyl)-L-aspartic acid] | 102%
18 | N=C(N)Nc1ccc2c(c1)CCCOc1c(cccc1C(=O)N1CCC(C(=O)N[C@@H](CC(=O)O)C(=O)O)CC1)OC2=O [Example 101, N-((1-((10-carbamimidamido-13-oxo-6,7,8,13-tetrahydro-dibenzo[b,f] [1,4]dioxecin-4-yl)carbonyl)-piperidin-4-yl)carbonyl)-L-aspartic acid] | 100%
19 | N=C(N)Nc1ccc2c(c1)CCc1ccc(CCC(=O)N[C@@H](CC(=O)O)C(=O)O)cc1OC2=O [Example 55, N-(3-(9-carbamimidamido-6-oxo-11,12-dihydro-6H-dibenzo[b,f]oxocin-3-yl)propanoyl)-L-aspartic acid] | 98%
20 | C[C@@H](C(=O)O)N(Cc1cccc(C(=O)O)c1)C(=O)c1cccc2c1OCCCc1cc(NC(=N)N)ccc1C(=O)O2 [Example 135, 3-((((10-Carbamimidamido-13-oxo-6,7,8,13-tetrahydrodibenzo[b,f][1,4]dioxecin-4-yl)carbonyl) ((1S)-1-carboxyethyl)amino)methyl)benzoic acid] | 100%
21 | N=C(N)Nc1ccc2c(c1)CCCCc1c(cc3c(c1C(=O)NCCS(=O)(=O)O)CCO3)OC2=O [Example 36, 2-(((3-carbamimidamido-15-oxo-5,7,8,10,11,15-hexahydro-6H-12,14-dioxabenzo[5,6]cyclodeca[1,2-f]inden-9-yl)carbonyl)amino)ethane-sulfonic acid] | 94%
22 | N=C(N)Nc1ccc2c(c1)CCCOc1c(cccc1C(=O)N(CCC(=O)O)Cc1cccc(C(=O)O)c1)OC2=O [Example 134, 3-((((10-carbamimidamido-13-oxo-6,7,8,13-tetrahydro-dibenzo[b,f] [1,4]dioxecin-4-yl)carbonyl)(2-carboxyethyl)amino)methyl)benzoic acid] | 100%
23 | N=C(N)Nc1ccc2c(c1)CCCOc1c(ccc(CCC(=O)O)c1C(=O)N[C@@H](Cc1ccc(O)cc1)C(=O)O)OC2=O [Example 113, N-((10-carbamimidamido-3-(2-carboxyethyl)-13-oxo-6,7,8,13-tetrahydro-dibenzo[b,f] [1,4]dioxecin-4-yl)carbonyl)-L-tyrosine] | 99%
24 | N=C(N)Nc1ccc2c(c1)OCCCc1c(cccc1C(=O)N[C@@H](CC(=O)O)C(=O)O)OC2=O [Example 84, N-((3-carbamimidamido-14-oxo-7,8-dihydro-6H,14H-dibenzo[b,f][1,5]dioxecin-9-yl)carbonyl)-L-aspartic acid] | 101%
25 | N=C(N)Nc1ccc2c(c1)CCCOc1c(cccc1C(=O)NCCS(=O)(=O)O)OC2=O [Example 28, 2-(((10-carbamimidamido-13-oxo-6,7,8,13-tetrahydro-dibenzo[b,f] [1,4]dioxecin-4-yl)carbonyl)amino) ethanesulfonic acid] | 102%

Same assay, conditions: read-out: 3.3 μM Inhibition

Row | Compound | inhibition at 3.3 µM
26 | N=C(N)c1ccc2c(c1)CCc1ccccc1C(=O)O2 [Example 59, 6-Oxo-11,12-dihydro-6H-dibenzo[b,f]oxocine-2-carboximidamide trifluoroacetate] | 57%
